In brackets after ≈: the same amount, converted by molar mass. Activity calls are given as the source filed them. No cut-off for these calls is given here.
Columns and labels:
Staphylococcus aureus [1] = assay: Antibacterial activity against methicillin-resistant Staphylococcus aureus ATCC 43300 after 20 to 24 hrs by CLSI method; type: functional
Staphylococcus aureus [2] = assay: Potentiation of oxacillin-mediated antibacterial activity against methicillin-resistant Staphylococcus aureus ATCC 43300 at 32 ug/ml after 20 to 24 hrs by CLSI method; type: functional
Staphylococcus aureus [3] = assay: Potentiation of oxacillin-mediated antibacterial activity against methicillin-resistant Staphylococcus aureus ATCC 43300 assessed as decrease in oxacillin MIC at 32 ug/ml after 20 to 24 hrs by CLSI method relative to control; type: functional
Staphylococcus aureus [4] = assay: Antibacterial activity against methicillin-resistant Staphylococcus aureus R308 clinical isolate after 20 to 24 hrs by CLSI method; type: functional
Staphylococcus aureus [5] = assay: Antibacterial activity against methicillin-resistant Staphylococcus aureus ATCC 43300 assessed as growth inhibition at 2 ug/ml measured up to 24 hrs by time kill assay; type: functional, organism-based
Staphylococcus aureus [6] = assay: Antibacterial activity against methicillin-resistant Staphylococcus aureus R49 clinical isolate after 20 to 24 hrs by CLSI method; type: functional
Staphylococcus aureus [7] = assay: Antibacterial activity against methicillin-resistant Staphylococcus aureus R306 clinical isolate after 20 to 24 hrs by CLSI method; type: functional
Staphylococcus aureus [8] = assay: Antibacterial activity against methicillin-resistant Staphylococcus aureus ATCC 43300 assessed as growth inhibition at 2 ug/ml after 24 hrs by Epsilometer test; type: functional, organism-based
Staphylococcus aureus [9] = assay: Antibacterial activity against methicillin-resistant Staphylococcus aureus R16 clinical isolate after 20 to 24 hrs by CLSI method; type: functional
Staphylococcus aureus [10] = assay: Antibacterial activity against methicillin-resistant Staphylococcus aureus R313 clinical isolate after 20 to 24 hrs by CLSI method; type: functional
Staphylococcus aureus [11] = assay: Antibacterial activity against methicillin-resistant Staphylococcus aureus ATCC 43300 assessed as change in bacterial surface at 2 ug/ml after 4 hrs by scanning electron microscopic analysis; type: functional, organism-based
Staphylococcus aureus [12] = assay: Antibacterial activity against methicillin-resistant Staphylococcus aureus R53 clinical isolate after 20 to 24 hrs by CLSI method; type: functional
Staphylococcus aureus [13] = assay: Antibacterial activity against methicillin-resistant Staphylococcus aureus R36 clinical isolate after 20 to 24 hrs by CLSI method; type: functional
Staphylococcus aureus [14] = assay: Antibacterial activity against methicillin-resistant Staphylococcus aureus R50 clinical isolate after 20 to 24 hrs by CLSI method; type: functional
Staphylococcus aureus [15] = assay: Antibacterial activity against methicillin-resistant Staphylococcus aureus R302 clinical isolate after 20 to 24 hrs by CLSI method; type: functional
Staphylococcus aureus [16] = assay: Downregulation of mecA mRNA expression in methicillin-resistant Staphylococcus aureus ATCC 43300 at 2 ug/ml after 4 hrs by RT-PCR analysis; type: functional, organism-based
Staphylococcus aureus [17] = assay: Antibacterial activity against methicillin-resistant Staphylococcus aureus R15 clinical isolate after 20 to 24 hrs by CLSI method; type: functional
Staphylococcus aureus [18] = assay: Antibacterial activity against methicillin-resistant Staphylococcus aureus R304 clinical isolate after 20 to 24 hrs by CLSI method; type: functional
Staphylococcus aureus [19] = assay: Antibacterial activity against methicillin-resistant Staphylococcus aureus R314 clinical isolate after 20 to 24 hrs by CLSI method; type: functional

| Compound | MIC (Staphylococcus aureus [1]) [µg/mL] | MIC (Staphylococcus aureus [2]) [µg/mL] | other results |
| --- | --- | --- | --- |
| CCCCCCCCCCCCO [DODECANOL] | > 256 | > 32 |  |
| CCCCCCCCCCCCCCCCO[C@@H]1O[C@H](CO)[C@@H](O)[C@H](O)[C@H]1O | > 256 | > 32 |  |
| CCCCCCCCCCCCCCCCOCc1cn([C@@H]2O[C@H](CO)[C@H](O)[C@H](O)[C@H]2O)nn1 | 256 (≈ 527 µM) | 16 | fold change (FC) (Staphylococcus aureus [3]): 16 |
| CCCCCCCCCCCCCCOCc1cn([C@@H]2O[C@H](CO)[C@@H](O)[C@H](O)[C@H]2O)nn1 | 256 (≈ 559 µM) | 4 | fold change (FC) (Staphylococcus aureus [3]): 64 |
| CCCCCCCCCCCCCCOCc1cn([C@@H]2O[C@H](CO)[C@H](O)[C@H](O)[C@H]2O)nn1 | 256 (≈ 559 µM) | 8 | fold change (FC) (Staphylococcus aureus [3]): 32 |
| CCCCCCCCCCCCOCc1cn([C@@H]2O[C@H](CO)[C@@H](O)[C@H](O)[C@@H]2O)nn1 | 256 (≈ 596 µM) | 4 | fold change (FC) (Staphylococcus aureus [3]): 64 |
| CCCCCCCCO [OCTANOL] | > 256 | > 32 |  |
| CCCCCCO [1-HEXANOL] | > 256 | > 32 |  |
| CCCCCCCCCCCCCCO[C@@H]1O[C@H](CO)[C@@H](O)[C@H](O)[C@H]1O | > 256 | > 32 |  |
| CCCCCCCCCCO [DECANOL] | > 256 | > 32 |  |
| CCCCCCCCCCCCCCCCO [CETYL ALCOHOL] | > 256 | > 32 |  |
| Cc1onc(-c2ccccc2)c1C(=O)N[C@@H]1C(=O)N2[C@@H]1SC(C)(C)[C@@H]2C(=O)O [OXACILLIN] | 64 (≈ 159 µM) |  | MIC (Staphylococcus aureus [4]): 1020 µg/mL (≈ 2550 µM); growth inhibition (GI) (Staphylococcus aureus [5]): inactive; MIC (Staphylococcus aureus [6]): 8 µg/mL (≈ 19.9 µM); MIC (Staphylococcus aureus [7]): 512 µg/mL (≈ 1280 µM); growth inhibition (GI) (Staphylococcus aureus [8]): inactive; MIC (Staphylococcus aureus [9]): ≥ 256 µg/mL; MIC (Staphylococcus aureus [10]): 16 µg/mL (≈ 39.9 µM); Activity (Staphylococcus aureus [11]): inactive; MIC (Staphylococcus aureus [12]): 8 µg/mL (≈ 19.9 µM); MIC (Staphylococcus aureus [13]): 128 µg/mL (≈ 319 µM); MIC (Staphylococcus aureus [14]): 8 µg/mL (≈ 19.9 µM); MIC (Staphylococcus aureus [15]): 512 µg/mL (≈ 1280 µM); Activity (Staphylococcus aureus [16]): inactive; MIC (Staphylococcus aureus [17]): 256 µg/mL (≈ 638 µM); MIC (Staphylococcus aureus [18]): 512 µg/mL (≈ 1280 µM); MIC (Staphylococcus aureus [19]): 512 µg/mL (≈ 1280 µM) |
| CCCCCCCCCCCCCCCCCCO [CETOSTEARYL ALCOHOL] | > 256 | > 32 |  |
| CCCCCCCCCCCCCCO [MYRISTYL ALCOHOL] | > 256 | > 32 |  |
